Source: patent publication US7776900B2, “Benzimidazole derivatives and their use for modulating the GABAAreceptor complex” (Neurosearch A/S, priority 2005, dated 2010)
Structures can show the parent of a compound that is named as a salt.

Tested on: not given
Test: not given
Settings: not given

Row | SMILES | melting point [°C]
1 | c1ccc(COCc2cccc(-n3cnc4cc(CN5CCCC5)ccc43)c2)nc1 | 192 to 194
2 | ON=Cc1ccc2c(c1)ncn2-c1cccc(COCc2ccccn2)c1 | 154 to 154.8
3 | ON=Cc1ccc2c(c1)ncn2-c1cccc(CNCc2ccc(F)c(F)c2)c1 | 165 to 167
4 | CCOC(=O)c1ccc2c(c1)ncn2-c1cccc(COCc2ccccn2)c1 | 99.8 to 101.2
5 | CC(=NO)c1ccc2c(c1)ncn2-c1cccc(COCc2ncnn2C)c1 (as salt: chloride) [Compound 22a, 1-{1-[3-(2-Methyl-2H-[1,2,4]triazol-3-ylmethoxymethyl)-phenyl]-1H-benzoimidazol-5-yl}-ethanone oxime] | 178.8 to 180.4

Target: GABAA receptor complex (benzodiazepine modulatory unit)
Test: In vitro inhibition of 3H-flunitrazepam (3H-FNM) binding
Set-up: species or system rat
Settings: inhibition of specific binding of 3H-FNM (1 nM), cerebral cortex membranes from male Wistar rats, 40 min at 2° C.
Description: In vitro Inhibition of ^3H-flunitrazepam (^3H-FNM) Binding
The GABA recognition site and the benzodiazepine modulatory unit can selectively be labelled with ^3H-flunitrazepam.
Preparations are performed at 0-4° C. unless otherwise indicated. Cerebral cortex from male Wistar rats (150-200 g) is homogenised for 5-10 sec in 20 ml Tris-HCl (30 mM, pH 7.4) using an Ultra-Turrax homogeniser. The suspension is centrifuged at 27,000×g for 15 min and the pellet is washed three times with buffer (centrifuged at 27,000×g for 10 min). The washed pellet is homogenized in 20 ml of buffer and incubated on a water bath (37° C.) for 30 min to remove endogenous GABA and then centrifuged for 10 min at 27,000×g. The pellet is then homogenized in buffer and centrifuged for 10 min at 27,000×g. The final pellet is resuspended in 30 ml buffer and the preparation is frozen and stored at −20° C.
The membrane preparation is thawed and centrifuged at 2° C. for 10 min at 27,000×g. The pellet is washed twice with 20 ml 50 mM Tris-citrate, pH 7.1 using an Ultra-Turrax homogeniser and centrifuged for 10 min at 27,000×g. The final pellet is resuspended in 50 mM Tris-citrate, pH 7.1 (500 ml buffer per g of original tissue), and then used for binding assays. Aliquots of 0.5 ml tissue are added to 25 μl of test solution and 25 μl of ^3H-FNM (1 nM, final concentration), mixed and incubated for 40 min at 2° C. Non-specific binding is determined using Clonazepam (1 μM, final concentration). After incubation the samples are added 5 ml of ice-cold buffer and poured directly onto Whatman GF/C glass fibre filters under suction and immediately washed with 5 ml ice-cold buffer. The amount of radioactivity on the filters is determined by conventional liquid scintillation counting. Specific binding is total binding minus non-specific binding.
25-75% inhibition of specific binding must be obtained, before calculation of an IC50.
The test value will be given as IC50 (the concentration (μM) of the test substance which inhibits the specific binding of ^3H-FNM by 50%). […]

Row | SMILES | IC50 [nM]
6 | CC(=NO)c1ccc2c(c1)ncn2-c1cccc(COCc2ncnn2C)c1 [Compound 22a, 1-{1-[3-(2-Methyl-2H-[1,2,4]triazol-3-ylmethoxymethyl)-phenyl]-1H-benzoimidazol-5-yl}-ethanone oxime] | 2.1
7 | CC(O)c1ccc2c(c1)ncn2-c1cccc(COCc2ncnn2C)c1 (centres unmarked) [Compound 23, 1{-1-[3-(2-Methyl-2H-[1,2,4]triazol-3-ylmethoxymethyl)-phenyl]-1H-benzoimidazol-5-yl}-ethanol] | 22
8 | CCOC(C)c1ccc2c(c1)ncn2-c1cccc(COCc2ncnn2C)c1 (centres unmarked) [Compound 24b, 5-(1-Ethoxy-ethyl)-1-[3-(2-methyl-2H-[1,2,4]triazol-3-ylmethoxymethyl)-phenyl]-1H-benzoimidazole] | 9.2
